Like-named read-outs stand apart in the source and are kept apart here.
Assays:
aorta of the rat [1] = assay: Relaxation of rat aortic rings contracted by potassium depolarisation (KCl); format: cell-based; settings: rat aorta rings without endothelium
Description: (§1) Male Wistar rats (325-375 g) are anaesthetised i.p. using sodium pentobarbital (30 mg/kg). The thoracic aorta and the mesenteric portal vein are removed. The aorta is dissected into rings 3 mm long and the endothelium is removed mechanically.
(§2) The organs are placed in a 20 ml thermostatically controlled vessel containing a physiological solution composed of (mM): NaCl 112; KCl 5; KH2 PO4 1; MgSO4 1.2; CaCl2 2.5; NaHCO3 25; glucose 11.5; EDTA 0.1; pH: 7.4; 37° C.; 95% O2 +5% CO2.
(§3) The initial force applied is 2 g in the case of the aorta and 0.5 g in the case of the portal vein. The variations in force are measured by a STATHAM sensor connected to a transducer amplifier (GOULD) and are monitored continuously on a GOULD 2400 graphic recorder.
(§4) The experimental protocols are as follows: After a stabilisation period of 90 minutes, the aortic rings are subjected to various tests:
potassium depolarisation:
The preparations are exposed to a 30 mM or 80 mM KCl (and 87 and 37 mM NaCl, respectively) hyperpotassium medium; after 30 minutes' stabilisation of contraction, cumulative concentrations of the product to be tested are added every 15 minutes. The relaxation values obtained allow the IC50 s to be calculated.
(§5) The products are used in a form dissolved in water or a suitable solvent.
(§6) The concentrations expressed refer to the final concentrations in terms of base in the isolated organ baths.

aorta of the rat [2] = assay: Reactivity of rat aortic rings to 4-aminopyridine (4 AP); format: cell-based; settings: 4 AP 5 mM
Description: as §1, §2, §3, §4
reactivity to 4-aminopyridine (4 AP)
The product to be tested, at a given concentration, or its solvent, is incubated in the normal physiological solution 15 minutes before the addition of the 4 AP (5 mM).
The maximum amplitudes of the responses to the 4 AP in the presence of the product or the solvent are compared.
as §5, §6

[3] = test system: spontaneously hypertensive rat (SHR); assay: Arterial pressure in the conscious spontaneously hypertensive rat (SHR), oral; format: in vivo
Description: The study is carried out on SHR male rats (Charles River) weighing from 260 g to 330 g and aged from 18 to 20 weeks. A polyethylene catheter is positioned at the level of the abdominal aorta and tunnelised at the level of the neck under anaesthesia (ketamine hydrochloride 150 mg/kg intraperitoneally). The animals, placed in movement-restraining cages, are tested in the conscious state at least 48 hours after intervention. The arterial pressure, measured by a STATHAM P23 pressure sensor connected to the abdominal catheter, is registered on a GOULD 2400 recorder. […] The doses administered are expressed in mg/kg of base.
The results obtained with a certain number of representative products of the invention and a reference product, CROMAKALIM, are grouped in the following Table. The variations in systolic and diastolic arterial pressure (PAS and PAD) presented at the most significant times after treatment are expressed as percentage variation with respect to the control values.

[4] = test system: conscious renally hypertensive dog; assay: Arterial pressure in the conscious renally hypertensive dog; format: in vivo; settings: gastric intubation, 0.1 mg/kg
Description: Mongrel dogs weighing from 20 to 25 kg are used. A silastic catheter positioned under anaesthesia (sodium pentobarbital 30 mg/kg i.v.) at the level of the abdominal aorta and left over a prolonged period permits the later measurement of the arterial pressure in the conscious animals. Arterial hypertension is induced by a second intervention under anaesthesia consisting in a constriction of the left renal artery using a clip, which reduces its rate of flow by approximately 70%, the left kidney is enveloped in a latex capsule and the contralateral kidney is left in place.
The systolic and diastolic arterial pressures (PAS and PAD) are measured using a STATHAM P23 pressure sensor connected to the silastic catheter and linked to a GOULD pressure amplifier. The products are tested on the animals, which have become hypertensive, in the conscious state, at least one week after the second intervention. The arterial pressure is monitored continuously on an ES1000 GOULD recorder until 7 hours have elapsed after the treatment and then until 24 hours have elapsed.
The products to be tested are administered via the digestive system, after gastric intubation, in a form dissolved in water or a suitable solvent. The doses administered are expressed in mg of base with respect to body weight.
The representative products of the invention were compared with the reference product (CROMAKALIM). The variations in the systolic and diastolic arterial pressures (PAS and PAD), presented at the most significant times after treatment, are expressed as percentage variation with respect to the control values.

anaesthetised dog = assay: Haemodynamic study in the anaesthetised dog (vascular resistances), i.v.; format: in vivo; settings: 10 μg/kg
Description: A complete haemodynamic study was carried out on mongrel dogs weighing from 25 to 30 kg, which were anaesthetised with sodium pentobarbital 30 mg/kg i.v., intubated and ventilated and subjected to a thoracotomy at the 5th left intercostal space. The measurement of the […] is carried out using electromagnetic rings positioned at the level of the ascending aorta and the circumflex branch of the left coronary artery, respectively, and connected to GOULD SP 2202 electromagnetic flow meters. The aortic pressure is measured by a MILLAR probe introduced via the femoral artery.
The total peripheral vascular resistance values (TPR) and the mean coronary vascular resistance values (CVRM) are calculated by the ratio between the mean aortic pressure and the mean cardiac output and the mean coronary output, respectively. The products tested were injected via the femoral vein in a form dissolved in water or a suitable solvent.
The evolution of the vascular resistances, expressed as percentage variation with respect to the control values, is presented as a function of time in the following Table.

guinea pig = assay: Bronchospasm produced by a histamine aerosol at 4%, compound i.v.; format: in vivo; settings: 0.30 mg/kg i.v.
Description: The bronchodilating activity has been studied in the guinea pig by the method of H. KONZETT and R. ROSSLER, Arch. Exp. Path. U. Pharm. 195, 71 (1940).
For example, the bronchospasm produced in the guinea pig by a histamine aerosol et 4% is inhibited of 96% by the compound of Example 1 B form, at the dose of 0.30 mg/kg i.v., and of 100% by the compound of Example 24 B form, at the dose of 0.35 mg/kg i.v.

With `CC1(C)Oc2ccc(C#N)cc2C(N2C(=O)CC[C@H]2CO)C1O` (single isomer, unassigned) [Example 1 form B, 3R,4S- or 3S,4R-trans-2,2-dimethyl-3-hydroxy-4-(2-oxo-5S-hydroxymethyl-1-pyrrolidinyl)-6-cyanochroman] the IC50 (aorta of the rat [1]; 30 mM KCl, listed as Ex. 1 Form B, read-out: IC50 (M) KCl 30 mM) was 3.4e-07 M, the IC50 (aorta of the rat [1]; 80 mM KCl, read-out: IC50 (M) KCl 80 mM) was over 0.0001 M and the “% inhibition of the response to 4AP” value (aorta of the rat [2]; product 3 × 10^-6 M) was 18%. For the same compound, the “% inhibition of the response to 4AP” value (aorta of the rat [2]; product 10^-5 M, listed as Ex. 1 Form B) was 77%, the “Variation (%) of PAD after treatment” value ([3]; 0.3 mg/kg, 1 H) was -36 ± 4% and the “Variation (%) of PAS after treatment” value ([3]; 0.3 mg/kg, 1 H) was -27 ± 4%. The “Variation (%) of PAD after treatment” value ([3]; 0.3 mg/kg, 3 H) was -35 ± 4%, the “Variation (%) of PAS after treatment” value ([3]; 0.3 mg/kg, 3 H) was -25 ± 3% and the “Variation (%) of PAD after treatment” value ([3]; 0.3 mg/kg, 6 H) was -40 ± 4%. The “Variation (%) of PAD after treatment” value ([3]; 0.3 mg/kg, 30 min) was -34 ± 6%, the “Variation (%) of PAS after treatment” value ([3]; 0.3 mg/kg, 30 min) was -27 ± 5% and the “Variation (%) of PAD after treatment” value ([3]; 1.0 mg/kg, 1 H) was -54 ± 2%. For the same compound, the “Variation (%) of PAS after treatment” value ([3]; 1.0 mg/kg, 1 H) was -44 ± 1%, the “Variation (%) of PAD after treatment” value ([3]; 1.0 mg/kg, 3 H) was -46 ± 6% and the “Variation (%) of PAS after treatment” value ([3]; 1.0 mg/kg, 3 H) was -40 ± 2%. For the same compound, the “Variation (%) of PAD after treatment” value ([3]; 1.0 mg/kg, 6 H) was -46 ± 4%, the “Variation (%) of PAS after treatment” value ([3]; 1.0 mg/kg, 6 H) was -36 ± 3% and the “Variation (%) of PAD after treatment” value ([3]; 1.0 mg/kg, 30 min) was -48 ± 5%. For the same compound, the “Variation (%) of PAS after treatment” value ([3]; 1.0 mg/kg, 30 min) was -42 ± 2%, the “Variation (%) of PAD after treatment” value ([4]; 1 H) was “+5%” and the “Variation (%) of PAS after treatment” value ([4]; 1 H) was “+2%”. For the same compound, the “Variation (%) of PAD after treatment” value ([4]; 3 H) was -50%, the “Variation (%) of PAS after treatment” value ([4]; 3 H) was -55% and the “Variation (%) of PAD after treatment” value ([4]; 7 H) was -68%. The “Variation (%) of PAS after treatment” value ([4]; 7 H) was -76%, the “Variation (%) of PAD after treatment” value ([4]; 24 H) was -27% and the “Variation (%) of PAS after treatment” value ([4]; 24 H) was -24%. The “Variation (%) of PAD after treatment” value ([4]; 30 min) was 0%, the “Variation (%) of PAS after treatment” value ([4]; 30 min) was 0% and the “Variation (%) of CVRM after treatment” value (anaesthetised dog; 1 min) was -69.4%. For the same compound, the “Variation (%) of TPR after treatment” value (anaesthetised dog; 1 min) was -45.9%, the “Variation (%) of CVRM after treatment” value (anaesthetised dog; 10 min) was -62.0% and the “Variation (%) of TPR after treatment” value (anaesthetised dog; 10 min) was -35.1%. For the same compound, the “Variation (%) of CVRM after treatment” value (anaesthetised dog; 30 min) was -43.7%, the “Variation (%) of TPR after treatment” value (anaesthetised dog; 30 min) was -35.1% and the “Inhibition of the bronchospasm produced by a histamine aerosol at 4%” value (guinea pig) was 96%.

Reference: patent US4999372A, “New aminochromanol compounds” (ADIR et Compagnie, priority 1988, dated 1991)
